In ChEMBL document CHEMBL1201862, “PubChem BioAssay data set” (2004):
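Step 1: Grow cells in 96-well plates. Step 2: Expose to compound for 48 hours at 5 concentrations. Step 3: Interpolate endpoints linearly; if unreached, use highest concentration. The concentration for 50% growth inhibition is given as GI50.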 The source made the active and inactive calls. No stated cut-off is given here; in the data, active = GI50 up to about 1.1 µM and inactive = higher.

What was measured:
Assay in all cases: growth of human tumour cells (NCI), 48 h
SNB-75 = test system: SNB-75
UACC-62 = test system: UACC-62
IGROV-1 = test system: IGROV-1
COLO 205 = test system: COLO 205
HCT-116 = test system: HCT-116
SK-OV-3 = test system: SK-OV-3
EKVX = test system: EKVX
SF-295 = test system: SF-295
TK-10 = test system: TK-10
DMS-114 = test system: DMS-114
NCI-H460 = test system: NCI-H460
NCI-H522 = test system: NCI-H522
RPMI-8226 = test system: RPMI-8226
HT-29 = test system: HT-29
A549 = test system: A549
ACHN = test system: ACHN
OVCAR-3 = test system: OVCAR-3

Row | Compound | GI50 (SNB-75) | GI50 (UACC-62) | GI50 (IGROV-1) | GI50 (COLO 205) | GI50 (HCT-116) | GI50 (SK-OV-3) | GI50 (EKVX) | GI50 (SF-295) | GI50 (TK-10) | GI50 (DMS-114) | GI50 (NCI-H460) | GI50 (NCI-H522) | GI50 (RPMI-8226) | GI50 (HT-29) | GI50 (A549) | GI50 (ACHN) | GI50 (OVCAR-3)
1 | COc1ccc(CCCN2c3ccccc3Sc3ccccc32)cc1 | > 100 µM (inactive) | > 100 µM (inactive) | > 100 µM (inactive) | 43.4 µM (inactive) | 36.3 µM (inactive) | > 100 µM (inactive) | > 100 µM (inactive) | > 100 µM (inactive) | > 100 µM (inactive) | 28.1 µM (inactive) | 99.5 µM (inactive) | 33.1 µM (inactive) | 32.3 µM (inactive) | 54.1 µM (inactive) | > 100 µM (inactive) | > 100 µM (inactive) | –
2 | CC(=O)C1C(=O)NC(=O)C1=O (centres undefined) | > 100 µM (inactive) | > 100 µM (inactive) | > 100 µM (inactive) | > 100 µM (inactive) | > 100 µM (inactive) | > 100 µM (inactive) | > 100 µM (inactive) | > 100 µM (inactive) | > 100 µM (inactive) | > 100 µM (inactive) | > 100 µM (inactive) | > 100 µM (inactive) | > 100 µM (inactive) | > 100 µM (inactive) | – | > 100 µM (inactive) | > 100 µM (inactive)
3 | CC(C)N(C(=O)C1(C)CC1)C(C)C | > 100 µM (inactive) | > 100 µM (inactive) | > 100 µM (inactive) | > 100 µM (inactive) | > 100 µM (inactive) | > 100 µM (inactive) | > 100 µM (inactive) | > 100 µM (inactive) | – | > 100 µM (inactive) | – | > 100 µM (inactive) | > 100 µM (inactive) | > 100 µM (inactive) | > 100 µM (inactive) | > 100 µM (inactive) | > 100 µM (inactive)
4 | CC1=C(C(=O)Nc2ccc([N+](=O)[O-])cc2)C(c2ccco2)C(C(=O)Nc2ccc([N+](=O)[O-])cc2)=C(C)N1 | 2.72 µM (inactive) | – | 14.9 µM (inactive) | 15.8 µM (inactive) | – | 9.35 µM (inactive) | 3.63 µM (inactive) | 28.1 µM (inactive) | 12.3 µM (inactive) | 5 µM (inactive) | 20.1 µM (inactive) | 12.4 µM (inactive) | 2.9 µM (inactive) | 25.8 µM (inactive) | 18.1 µM (inactive) | 4.4 µM (inactive) | 11.2 µM (inactive)
5 | N#Cc1ccc(C2OCC3CC=CCC3CO2)cc1 (centres undefined) | 64.9 µM (inactive) | 80.7 µM (inactive) | > 100 µM (inactive) | 80.9 µM (inactive) | 65.5 µM (inactive) | > 100 µM (inactive) | 31.2 µM (inactive) | 48.1 µM (inactive) | – | 61.7 µM (inactive) | 68.7 µM (inactive) | 18.9 µM (inactive) | 42.2 µM (inactive) | 44.7 µM (inactive) | 70 µM (inactive) | 93.5 µM (inactive) | 91 µM (inactive)
6 | O=C(O)c1cc(=O)c2c([nH]c3ccccc32)s1 | 56.8 µM (inactive) | > 100 µM (inactive) | > 100 µM (inactive) | > 100 µM (inactive) | – | > 100 µM (inactive) | > 100 µM (inactive) | > 100 µM (inactive) | > 100 µM (inactive) | > 100 µM (inactive) | > 100 µM (inactive) | > 100 µM (inactive) | > 100 µM (inactive) | – | > 100 µM (inactive) | > 100 µM (inactive) | > 100 µM (inactive)
7 | C[P+](C)(C)C | > 100 µM (inactive) | > 100 µM (inactive) | > 100 µM (inactive) | > 100 µM (inactive) | > 100 µM (inactive) | > 100 µM (inactive) | > 100 µM (inactive) | > 100 µM (inactive) | > 100 µM (inactive) | > 100 µM (inactive) | > 100 µM (inactive) | – | > 100 µM (inactive) | > 100 µM (inactive) | > 100 µM (inactive) | > 100 µM (inactive) | > 100 µM (inactive)
8 | COC(=O)CC(=O)NCC1=CCC(=O)CC1 | > 100 µM (inactive) | > 100 µM (inactive) | > 100 µM (inactive) | > 100 µM (inactive) | > 100 µM (inactive) | > 100 µM (inactive) | > 100 µM (inactive) | > 100 µM (inactive) | > 100 µM (inactive) | > 100 µM (inactive) | > 100 µM (inactive) | > 100 µM (inactive) | > 100 µM (inactive) | > 100 µM (inactive) | > 100 µM (inactive) | – | > 100 µM (inactive)
9 | COc1ccc(/C=C(\Cl)c2ccc(OC)cc2)cc1 | > 100 µM (inactive) | 38.8 µM (inactive) | – | > 100 µM (inactive) | > 100 µM (inactive) | 0.325 µM (active) | > 100 µM (inactive) | – | > 100 µM (inactive) | > 100 µM (inactive) | > 100 µM (inactive) | > 100 µM (inactive) | > 100 µM (inactive) | – | > 100 µM (inactive) | > 100 µM (inactive) | > 100 µM (inactive)
